Laboratory results: patent publication US20060240048A1 (priority 2002, published 2006)

Molecular target: T1, human cannabinoid CB2 receptor (Homo sapiens, UniProt P34972)
T1 construct: expressed in transfected cells; host or cells: Saccharomyces cerevisiae strain MMY23
Experiment: Cannabinoid CB2 receptor agonist activity, yeast reporter assay (FDGlu fluorescence);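 for Emax: 100% equals maximal response of reference agonist HU210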
Format: cell-based
Conditions: for Emax: read-out: efficacy value (Emax) at the cloned human cannabinoid CB2 receptor
Protocol: The cannabinoid CB2 receptor agonist activity of the compounds of formula (I) was determined in accordance with the following experimental method.
Yeast (Saccharomyces cerevisiae) cells expressing the human cannabinoid CB2 receptor were generated by integration of an expression cassette into the ura3 chromosomal locus of yeast strain MMY23. This cassette consisted of DNA sequence encoding the human CB2 receptor flanked by the yeast GPD promoter to the 5′ end of CB2 and a yeast transcriptional terminator sequence to the 3′ end of CB2. MMY23 expresses a yeast/mammalian chimeric G-protein alpha subunit in which the C-terminal 5 amino acids of Gpa1 are replaced with the C-terminal 5 amino acids of human Gαi3 (as described in Brown et al. (2000), Yeast 16:11-22). Cells were grown at 30° C. in liquid Synthetic Complete (SC) yeast media (Guthrie and Fink (1991), Methods in Enzymology, Vol. 194) lacking uracil, tryptophan, adenine and leucine to late logarithmic phase (approximately 6 OD600/ml).
Agonists were prepared as 10 mM stocks in DMSO. […] Agonist solutions in DMSO (1% final assay volume) were transferred into black, clear bottom, microtitre plates from NUNC (96- or 384-well). […] This mixture (50 ul per well for 384-well plates, 200 ul per well for 96-well plates) was added to agonist in the assay plates (Multidrop 384, Labsystems). After incubation at 30° C. for 24 hours, fluorescence resulting from degradation of FDGlu to fluorescein due to exoglucanase, an endogenous yeast enzyme produced during agonist-stimulated cell growth, was determined using a Spectrofluor microtitre plate reader (Tecan; excitation wavelength: 485 nm; emission wavelength: 535 nm). Fluorescence was plotted against compound concentration and iteratively curve fitted using a four parameter fit to generate a concentration effect value.
where Max[compound X] and Min[compound X] are the fitted maximum and minimum respectively from the concentration effect curve for compound X, and Max[HU210] and Min[HU210] are the fitted maximum and minimum respectively from the concentration effect curve for (6aR,10aR)-3-(1,1′-Dimethylheptyl)-6a,7,10,10a-tetrahydro-1-hydroxy-6,6-dimethyl-6H-dibenzo[b,d]pyran-9-methanol (HU210; available from Tocris). Equieffective molar ratio (EMR) values were calculated from the equation EMR=EC50 [compound X]/EC50 [HU210]
Where EC50 [compound X] is the EC50 of compound X and EC50 [HU210] is the EC50 of HU210.

T1 sequence (P34972 whole entry): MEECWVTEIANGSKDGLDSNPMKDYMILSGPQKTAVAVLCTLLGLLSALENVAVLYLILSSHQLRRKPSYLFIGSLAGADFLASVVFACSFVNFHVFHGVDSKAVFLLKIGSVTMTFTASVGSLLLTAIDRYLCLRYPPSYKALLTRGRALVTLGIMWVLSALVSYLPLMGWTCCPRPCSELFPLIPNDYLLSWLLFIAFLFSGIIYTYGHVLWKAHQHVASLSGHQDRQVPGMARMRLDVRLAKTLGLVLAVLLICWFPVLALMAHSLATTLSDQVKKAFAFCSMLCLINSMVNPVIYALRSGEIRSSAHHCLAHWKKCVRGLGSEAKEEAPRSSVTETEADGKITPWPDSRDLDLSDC

Structure (SMILES) | EC50 [nM] | Emax [%]
Cc1cc(C#N)ccc1Nc1cc(C(C)C)c(C(=O)NCC2CCCC2)cn1 [Example 93, 6-(4-Cyano-2-methyl-phenylamino)-N-cyclopentylmethyl-4-isopropyl-nicotinamide] | < 300 | > 50
CC(C)c1cc(Nc2ccc(C#N)c(C(F)(F)F)c2)ncc1C(=O)NCC1CCOCC1 [Example 96, 6-(4-Cyano-3-trifluoromethyl-phenylamino)-4-isopropyl-N-(tetrahydro-pyran-4-ylmethyl)-nicotinamide] | – | > 50
CC(C)c1cc(Nc2ccc(C#N)cc2F)ncc1C(=O)NCC1CCOCC1 [Example 97, 6-(4-Cyano-2-fluoro-phenylamino)-4-isopropyl-N-(tetrahydro-pyran-4-ylmethyl)-nicotinamide] | – | > 50
O=C(NC1CCC1)c1cnc(Nc2cccc(Cl)c2Cl)cc1C(F)(F)F [Example 104, 6-(2,3-Dichloro-phenylamino)-N-(cyclobutyl)-4-trifluoromethyl-nicotinamide] | < 300 | > 50
O=C(NCC1CCOCC1)c1cnc(Nc2ccc(Cl)cc2Cl)cc1C(F)(F)F [Example 105, 6-(2,4-Dichloro-phenylamino)-N-(tetrahydropyran-4-ylmethyl)-4-trifluoromethyl-nicotinamide] | – | > 50
O=C(NCC1CCS(=O)(=O)C1)c1cnc(Nc2cccc(Cl)c2)cc1C(F)(F)F (centres unmarked) [Example 106, 6-(3-Chloro-phenylamino)-N-(1,1-dioxo-tetrahydrothiophen-3-ylmethyl)-4-trifluoromethyl-nicotinamide] | < 300 | > 50
O=C(NCC1CCCCC1)c1cnc(Nc2ccccc2)cc1C(F)(F)F [Example 107, N-Cyclohexylmethyl-6-phenylamino-4-trifluoro-methyl-nicotinamide] | < 300 | > 50
O=C(NCC1CCCC1)c1cnc(Nc2ccccc2)cc1C(F)(F)F [Example 108, N-Cyclopentylmethyl-6-phenylamino-4-trifluoro-methyl-nicotinamide] | < 300 | > 50
O=C(NCC1CCC1)c1cnc(Nc2ccccc2)cc1C(F)(F)F [Example 109, N-Cyclobutylmethyl-6-phenylamino-4-trifluoro-methyl-nicotinamide] | < 300 | > 50
O=C(NC1CCC1)c1cnc(Nc2cccc(Cl)c2)cc1C(F)(F)F [Example 110, N-Cyclobutyl-6-(3-chloro-phenylamino)-4-trifluoro-methyl-nicotinamide] | < 300 | > 50
O=C(NCC1CCOCC1)c1cnc(Nc2cccc(Cl)c2)cc1C(F)(F)F [Example 111, N-(Tetrahydropyran-4-yl-methyl)-6-(3-chlorophenyl-amino)-4-trifluoromethyl-nicotinamide] | – | > 50
O=C(NCC1CCC1)c1cnc(Nc2cccc(Cl)c2)cc1C(F)(F)F [Example 112, N-Cyclobutylmethyl-6-(3-chlorophenylamino)-4-tri-fluoromethyl-nicotinamide] | < 300 | > 50
CC(C)CNC(=O)c1cnc(Nc2cccc(Cl)c2)cc1C(F)(F)F [Example 113, N-Isobutyl-6-(3-chloro-phenylamino)-4-trifluoro-methyl-nicotinainide] | < 300 | > 50
O=C(NCC1CCCC1)c1cnc(Nc2cccc(Cl)c2)cc1C(F)(F)F [Example 114, N-Cyclopentylmethyl-6-(3-chlorophenylamino)-4-tri-fluoromethyl-nicotinamide] | < 300 | > 50
O=C(NCC1CC1)c1cnc(Nc2cccc(Cl)c2)cc1C(F)(F)F [Example 115, N-Cyclopropylmethyl-6-(3-chlorophenylamino)-4-tri-fluoromethyl-nicotinamide] | < 300 | > 50
O=C(NCC1CCCCC1)c1cnc(Nc2cccc(Br)c2)cc1C(F)(F)F [Example 116, N-Cyclohexylmethyl-6-(3-bromophenylamino)-4-tri-fluoromethyl-nicotinamide] | < 300 | > 50
O=C(NCC1CCCCCC1)c1cnc(Nc2cccc(Br)c2)cc1C(F)(F)F [Example 117, N-Cycloheptylmethyl-6-(3-bromophenylamino)-4-tri-fluoromethyl-nicotinamide] | < 300 | > 50

Structure (SMILES) | EC50 [nM] | Emax [%]
O=C(NCC1CCOCC1)c1cnc(Nc2cccc(Br)c2)cc1C(F)(F)F [Example 118, N-(Tetrahydropyran-4-yl-methyl)-6-(3-bromophenyl-amino)-4-trifluoromethyl-nicotinamide] | < 300 | > 50
O=C(NC1CCC1)c1cnc(Nc2cccc(Br)c2)cc1C(F)(F)F [Example 119, N-Cyclobutyl-6-(3-bromo-phenylamino)-4-trifluoro-methyl-nicotinamide] | < 300 | > 50
O=C(NCC1CCC1)c1cnc(Nc2cccc(Br)c2)cc1C(F)(F)F [Example 120, N-Cyclobutylmethyl-6-(3-bromo-phenylamino)-4-tri-fluoromethyl-nicotinamide] | < 300 | > 50
O=C(NCC1CCCC1)c1cnc(Nc2cccc(Br)c2)cc1C(F)(F)F [Example 122, N-Cyclopentylmethyl-6-(3-bromo-phenylamino)-4-tri-fluoromethyl-nicotinamide] | < 300 | > 50
O=C(NCC1CC1)c1cnc(Nc2cccc(Br)c2)cc1C(F)(F)F [Example 123, N-Cyclopropylmethyl-6-(3-bromo-phenylamino)-4-tri-fluoromethyl-nicotinamide] | < 300 | > 50
O=C(NCC1CCC1)c1cnc(Nc2ccccc2F)cc1C(F)(F)F [Example 124, N-Cyclobutylmethyl-6-(2-fluoro-phenylamino)-4-tri-fluoromethyl-nicotinamide] | < 300 | > 50
O=C(NCC1CCCCCC1)c1cnc(Nc2cccc(F)c2)cc1C(F)(F)F [Example 125, N-Cycloheptylmethyl-6-(3-fluoro-phenylamino)-4-tri-fluoromethyl-nicotinamide] | < 300 | > 50
O=C(NC1CCC1)c1cnc(Nc2cccc(F)c2)cc1C(F)(F)F [Example 127, N-Cyclobutyl-6-(3-fluoro-phenylamino)-4-trifluoro-methyl-nicotinamide] | < 300 | > 50
O=C(NCC1CCCCC1)c1cnc(Nc2cccc(F)c2)cc1C(F)(F)F [Example 128, N-Cyclohexylmethyl-6-(3-fluoro-phenylamino)-4-tri-fluoromethyl-nicotinamide] | < 300 | > 50
O=C(NCC1CCC1)c1cnc(Nc2cccc(F)c2)cc1C(F)(F)F [Example 129, N-Cyclobutylmethyl-6-(3-fluoro-phenylamino)-4-tri-fluoromethyl-nicotinamide] | < 300 | > 50
O=C(NCC1CCCC1)c1cnc(Nc2cccc(F)c2)cc1C(F)(F)F [Example 130, N-Cyclopentylmethyl-6-(3-fluoro-phenylamino)-4-tri-fluoromethyl-nicotinamide] | < 300 | > 50
CC(C)CNC(=O)c1cnc(Nc2cccc(F)c2)cc1C(F)(F)F [Example 131, N-Isobutyl-6-(3-fluoro-phenylamino)-4-trifluoro-methyl-nicotinamide] | < 300 | > 50
O=C(NCC1CC1)c1cnc(Nc2cccc(F)c2)cc1C(F)(F)F [Example 132, N-Cyclopropylmethyl-6-(3-fluoro-phenylamino)-4-tri-fluoromethyl-nicotinamide] | < 300 | > 50
O=C(NCC1CCS(=O)(=O)C1)c1cnc(Nc2cccc(F)c2)cc1C(F)(F)F (centres unmarked) [Example 133, N-(1,1-Dioxo-tetrahydro-thiophen-3-ylmethyl)-6-(3-fluoro-phenylamino)-4-trifluoromethyl-nicotinamide] | < 300 | > 50
O=C(NCC1CCC1)c1cnc(Nc2ccc(F)cc2)cc1C(F)(F)F [Example 134, N-Cyclobutylmethyl-6-(4-fluoro-phenylamino)-4-trifluoromethyl-nicotinamide] | < 300 | > 50
O=C(NCC1CCOCC1)c1cnc(Nc2cccc(Cl)c2Cl)cc1C(F)(F)F [Example 135, N-(Tetrahydropyran-4-yl-methyl)-6-(2,3-dichloro-phenylamino)-4-trifluoro-methyl-nicotinanhide] | < 300 | > 50
